Source: patent US6440903B1, “Substituted 2,4-diamino-1,3,5-triazines as herbicides” (Bayer Aktiengesellschaft, priority 1996, dated 2002)

How the values were obtained:
Sinapis = test: Post-emergence test; format: in vivo; conditions: greenhouse, 1000 g of ai./ha, scored after three weeks
Method: (§1) Post-emergence Test Solvent: 5 parts by weight of acetone Emulsifier: 1 part by weight of alkylaryl polyglycol ether To produce a suitable preparation of active compound, 1 part by weight of active compound is mixed with the stated amount of solvent, the stated amount of emulsifier is added and the concentrate is diluted with water to the desired concentration. Test plants which have a height of 5-15 cm are sprayed with the preparation of active compound such that the particular amounts of active compounds desired are applied per unit area. The concentration of the spray liquor is chosen so that the particular amounts of active compound desired are applied in 1000 l of water/ha. After three weeks, the degree of damage to the plants is scored visually in % damage in comparison to the untreated control. The Figures Denote: 0%=no effect (like untreated control) 100%=total destruction

Amaranthus = test: Post-emergence test; format: in vivo; conditions: greenhouse, scored after three weeks; for pest or weed control at 1000 g/ha: 1000 g of ai./ha; for pest or weed control at 500 g/ha: 500 g of ai./ha
Method: as §1

Setaria = test: Post-emergence test; format: in vivo; conditions: greenhouse, scored after three weeks; for pest or weed control at 1000 g/ha: 1000 g of ai./ha; for pest or weed control at 500 g/ha: 500 g of ai./ha
Method: as §1

weeds [1] = test: Pre-emergence test (summary in text); format: in vivo; conditions: result in words
Method: (§2) Solvent: 5 parts by weight of acetone
(§3) Emulsifier: 1 part by weight of alkylaryl polyglycol ether
(§4) To produce a suitable preparation of active compound, 1 part by weight of active compound is mixed with the stated amount of solvent, the stated amount of emulsifier is added and the concentrate is diluted with water to the desired concentration.
Seeds of the test plants are sown in normal soil. After about 24 hours, the soil is watered with the preparation of active compound. The amount of water per unit area is advantageously kept constant. The concentration of active compound in the preparation is immaterial, only the application rate of active compound per unit area matters.
After three weeks, the degree of damage to the plants is scored visually in % damage in comparison to the development of the untreated control.
(§5) 0%=no effect (like untreated control)

weeds [2] = test: Post-emergence test (summary in text); format: in vivo; conditions: result in words
Method: as §2, §3, §4
Test plants which have a height of 5-15 cm are sprayed with the preparation of active compound such that the particular amounts of active compounds desired are applied per unit area. The concentration of the spray liquor is chosen so that the particular amounts of active compound desired are applied in 1000 l of water/ha.
After three weeks, the degree of damage to the plants is scored visually in % damage in comparison to the untreated control.
as §5

Wheat = test: Post-emergence test; format: in vivo; conditions: greenhouse, scored after three weeks; for % damage, Wheat: 250 g of ai./ha; for plant injury at 500 g/ha: Triticum aestivum, 504 h, 500 g of ai./ha, read-out: % damage, Wheat
Method: as §1

Chenopodium = test: Post-emergence test; format: in vivo; conditions: greenhouse, scored after three weeks; for pest or weed control at 500 g/ha: 500 g of ai./ha
Method: as §1

Viola = test: Post-emergence test; format: in vivo; conditions: greenhouse, scored after three weeks; for pest or weed control at 500 g/ha: 500 g of ai./ha
Method: as §1

Polygonum = test: Post-emergence test; format: in vivo; conditions: greenhouse, scored after three weeks; for pest or weed control at 500 g/ha: 500 g of ai./ha
Method: as §1

[3] = Amaranthus, 504 h, read-out: % damage, Amaranthus
[4] = Setaria, 504 h, read-out: % damage, Setaria
[5] = Chenopodium, 504 h, read-out: % damage, Chenopodium
[6] = 504 h, read-out: % damage, Viola
[7] = Polygonum, 504 h, read-out: % damage, Polygonum

## COCc1nc(NC(C)=O)nc(NC(C)c2ccc(SOC)cc2)n1 (stereo not shown)
Sinapis
  % damage, Sinapis: 100%
Amaranthus; [3]
  pest or weed control at 1000 g/ha: 100%
Setaria; [4]
  pest or weed control at 1000 g/ha: 100%

## COSc1ccc(C(C)Nc2nc(N)nc(C(C)Cl)n2)cc1 (stereo not shown)
Sinapis
  % damage, Sinapis: 100%
Amaranthus; [3]
  pest or weed control at 1000 g/ha: 100%
Setaria; [4]
  pest or weed control at 1000 g/ha: 100%

## CSc1ccc(C(C)Nc2nc(N)nc(C(F)(F)F)n2)cc1 (racemic) [Example 1, 2-amino4-trifluoromethyl-6-[1-(4-methylthio-phenyl)-ethylamino]-1,3,5-triazine]
other
  melting point: 111 °C

## CSc1ccc(C(C)Nc2nc(NC(C)=O)nc(C(F)(F)F)n2)cc1 (racemic) [Example 2, 2-acetylamino-4-trifluoromethyl-6-[1-(4-methylthio-phenyl)-ethylamino]-1,3,5-triazine]
other
  melting point: 132 °C

## CC(Nc1nc(N)nc(C(F)(F)F)n1)c1ccc([S+](C)[O-])cc1 (racemic) [Example 3, 2-amino-4-trifluoromethyl-6-[1-(4-methylsulphinyl-phenyl)-ethylamino]-1,3,5-triazine]
other
  melting point: 220 °C (dec.)

## CC(F)c1nc(N)nc(NC(C)c2ccc(Cl)cc2)n1 (stereo not shown) [Example 13]
Weeds [1]
  activity against weeds: strong activity
Weeds [2]
  activity against weeds: strong activity

## CC(F)c1nc(N)nc(NC(C)c2ccc(Cl)cc2)n1 (stereo not shown) [Example 14]
Weeds [1]
  activity against weeds: strong activity

## CC(Nc1nc(N)nc(C(C)(C)F)n1)c1ccc(Cl)cc1 (stereo not shown) [Example 16]
Weeds [1]
  activity against weeds: strong activity
Weeds [2]
  activity against weeds: strong activity

## CC(Nc1nc(N)nc(C(C)(C)F)n1)c1ccc(Cl)cc1 (stereo not shown) [Example 22]
Weeds [1]
  activity against weeds: strong activity

## COc1ccc(C(C)Nc2nc(NC(C)=O)nc(C(F)(F)F)n2)cc1 (stereo not shown) [Example 82]
other
  melting point: 130 °C
Weeds [2]
  activity against weeds: strong activity

## COc1ccc(C(C)Nc2nc(NC(C)=O)nc(C(F)(F)F)n2)cc1 (stereo not shown) [Example 84]
other
  melting point: 108 °C
Weeds [2]
  activity against weeds: strong activity

## CCC(Nc1nc(N)nc(C(F)(F)F)n1)c1ccc(Cl)cc1 (stereo not shown) [Example 85]
other
  melting point: 145 °C
Weeds [2]
  activity against weeds: strong activity

## CCC(Nc1nc(NC(C)=O)nc(C(F)(F)F)n1)c1ccc(Cl)cc1 (stereo not shown) [Example 90]
other
  melting point: 116 °C
Weeds [2]
  activity against weeds: strong activity

## COCc1nc(N)nc(NC(C)c2ccc(Cl)cc2)n1 (stereo not shown) [Example 98]
other
  melting point: 149 °C
Weeds [2]
  activity against weeds: strong activity

## COCc1nc(NC(C)=O)nc(NC(C)c2ccc(SC)cc2)n1 (stereo not shown) [Example 103]
other
  melting point: 141 °C
Weeds [2]
  activity against weeds: strong activity

## CSc1ccc(C(C)Nc2nc(N)nc(C(Cl)Cl)n2)cc1 (stereo not shown) [Example 108]
other
  melting point: 125 °C
Weeds [2]
  activity against weeds: strong activity

## CSc1ccc(C(C)Nc2nc(N)nc(C(C)(Cl)Cl)n2)cc1 (stereo not shown) [Example 126]
other
  melting point: 133 °C
Weeds [2]
  activity against weeds: strong activity

## CC(=O)Nc1nc(NC(C)c2ccc(Cl)cc2)nc(C(Cl)Cl)n1 (stereo not shown) [Example 145]
other
  melting point: 132 °C
Weeds [2]
  activity against weeds: strong activity

## CC(=O)Nc1nc(NC(C)c2ccc(Cl)cc2)nc(C(C)Cl)n1 (stereo not shown) [Example 146]
other
  melting point: 126 °C
Weeds [2]
  activity against weeds: strong activity

## CC(Nc1nc(N)nc(C(Cl)Cl)n1)c1ccc(Cl)cc1 (stereo not shown) [Example 149]
Weeds [1]
  activity against weeds: strong activity
other
  melting point: 152 °C

## CC(Cl)c1nc(N)nc(NC(C)c2ccc(Cl)cc2)n1 (stereo not shown) [Example 157]
Weeds [1]
  activity against weeds: strong activity

## CC(Nc1nc(N)nc(C(C)(Cl)Cl)n1)c1ccc(Cl)cc1 (stereo not shown) [Example 159]
Weeds [1]
  activity against weeds: strong activity

## CC(Nc1nc(N)nc(C(Cl)Cl)n1)c1ccc(Cl)cc1 (stereo not shown) [Example 168]
other
  melting point: 133 °C
Weeds [2]
  activity against weeds: strong activity

## CCc1nc(NC(C)=O)nc(NC(C)c2ccc(Cl)cc2)n1 (stereo not shown) [Example 173]
other
  melting point: 182 °C
Weeds [2]
  activity against weeds: strong activity

## CC(=O)Nc1nc(NC(C)c2ccc(Cl)cc2)nc(C(Cl)Cl)n1 (stereo not shown) [Example 175]
other
  melting point: 131 °C
Weeds [2]
  activity against weeds: strong activity

## CC(=O)Nc1nc(NC(C)c2ccc(Cl)cc2)nc(C(C)Cl)n1 (stereo not shown) [Example 177]
other
  melting point: 110 °C
Weeds [2]
  activity against weeds: strong activity

## COCc1nc(NC(C)=O)nc(NC(C)c2ccc(Cl)cc2)n1 (stereo not shown) [Example 178]
other
  melting point: 155 °C
Weeds [2]
  activity against weeds: strong activity

## CC(Nc1nc(N)nc(C(F)C(F)(F)F)n1)c1ccc(Cl)cc1 (stereo not shown) [drawing 128]
Amaranthus; 250 g of ai./ha
  % damage, Amaranthus: 100%
Wheat
  % damage, Wheat: 10%
Setaria; 250 g of ai./ha
  % damage, Setaria: 90%
Chenopodium; 250 g of ai./ha
  % damage, Chenopodium: 100%
Viola; 250 g of ai./ha
  % damage, Viola: 100%
Polygonum; 250 g of ai./ha
  % damage, Polygonum: 100%

## CC(Nc1nc(N)nc(C(Cl)Cl)n1)c1ccc(Cl)cc1 (stereo not shown) [drawing 129]
Amaranthus; [3]
  pest or weed control at 500 g/ha: 100%
Wheat
  plant injury at 500 g/ha: 10%
Setaria; [4]
  pest or weed control at 500 g/ha: 100%
Chenopodium; [5]
  pest or weed control at 500 g/ha: 100%
Viola; [6]
  pest or weed control at 500 g/ha: 100%
Polygonum; [7]
  pest or weed control at 500 g/ha: 100%

## CC(Cl)c1nc(N)nc(NC(C)c2ccc(Cl)cc2)n1 (stereo not shown) [drawing 131]
Amaranthus; 250 g of ai./ha
  % damage, Amaranthus: 100%
Wheat
  % damage, Wheat: 10%
Setaria; 250 g of ai./ha
  % damage, Setaria: 90%
Chenopodium; 250 g of ai./ha
  % damage, Chenopodium: 100%
Viola; 250 g of ai./ha
  % damage, Viola: 100%
Polygonum; 250 g of ai./ha
  % damage, Polygonum: 100%

## CCc1nc(NC(C)=O)nc(NC(C)c2ccc(Cl)cc2)n1 (stereo not shown) [drawing 132]
Amaranthus; [3]
  pest or weed control at 500 g/ha: 100%
Wheat
  plant injury at 500 g/ha: 10%
Setaria; [4]
  pest or weed control at 500 g/ha: 80%
Chenopodium; [5]
  pest or weed control at 500 g/ha: 100%
Viola; [6]
  pest or weed control at 500 g/ha: 100%
Polygonum; [7]
  pest or weed control at 500 g/ha: 100%

## CC(=O)Nc1nc(NC(C)c2ccc(Cl)cc2)nc(C(Cl)Cl)n1 (stereo not shown) [drawing 133]
Amaranthus; [3]
  pest or weed control at 500 g/ha: 100%
Wheat
  plant injury at 500 g/ha: 10%
Setaria; [4]
  pest or weed control at 500 g/ha: 80%
Chenopodium; [5]
  pest or weed control at 500 g/ha: 100%
Viola; [6]
  pest or weed control at 500 g/ha: 100%
Polygonum; [7]
  pest or weed control at 500 g/ha: 100%

## CC(=O)Nc1nc(NC(C)c2ccc(Cl)cc2)nc(C(C)Cl)n1 (stereo not shown) [drawing 134]
Amaranthus; [3]
  pest or weed control at 500 g/ha: 100%
Wheat
  plant injury at 500 g/ha: 10%
Setaria; [4]
  pest or weed control at 500 g/ha: 100%
Chenopodium; [5]
  pest or weed control at 500 g/ha: 100%
Viola; [6]
  pest or weed control at 500 g/ha: 100%
Polygonum; [7]
  pest or weed control at 500 g/ha: 100%

## COCc1nc(NC(C)=O)nc(NC(C)c2ccc(Cl)cc2)n1 (stereo not shown) [drawing 135]
Amaranthus; [3]
  pest or weed control at 500 g/ha: 100%
Wheat
  plant injury at 500 g/ha: 10%
Setaria; [4]
  pest or weed control at 500 g/ha: 70%
Chenopodium; [5]
  pest or weed control at 500 g/ha: 100%
Viola; [6]
  pest or weed control at 500 g/ha: 100%
Polygonum; [7]
  pest or weed control at 500 g/ha: 100%

## CCC(Nc1nc(N)nc(C(F)(F)F)n1)c1ccc(Cl)cc1 (stereo not shown) [drawing 137]
Amaranthus; Amaranthus, 504 h, 250 g of ai./ha, read-out: % damage, Amaranthus
  pest or weed control at 250 g/ha: 100%
Wheat
  % damage, Wheat: 0%
Setaria; Setaria, 504 h, 250 g of ai./ha, read-out: % damage, Setaria
  pest or weed control at 250 g/ha: 95%
Chenopodium; Chenopodium, 504 h, 250 g of ai./ha, read-out: % damage, Chenopodium
  pest or weed control at 250 g/ha: 100%
Viola; 504 h, 250 g of ai./ha, read-out: % damage, Viola
  pest or weed control at 250 g/ha: 100%
Polygonum; Polygonum, 504 h, 250 g of ai./ha, read-out: % damage, Polygonum
  pest or weed control at 250 g/ha: 100%

## COc1ccc(C(C)Nc2nc(N)nc(C(F)(F)F)n2)cc1 (stereo not shown) [drawing 138]
Amaranthus; [3]
  pest or weed control at 500 g/ha: 100%
Wheat
  plant injury at 500 g/ha: 0%
Setaria; [4]
  pest or weed control at 500 g/ha: 100%
Chenopodium; [5]
  pest or weed control at 500 g/ha: 100%
Viola; [6]
  pest or weed control at 500 g/ha: 100%
Polygonum; [7]
  pest or weed control at 500 g/ha: 100%

## COc1ccc(C(C)Nc2nc(NC(C)=O)nc(C(F)(F)F)n2)cc1 (stereo not shown) [drawing 141]
Amaranthus; [3]
  pest or weed control at 500 g/ha: 100%
Wheat
  plant injury at 500 g/ha: 10%
Setaria; [4]
  pest or weed control at 500 g/ha: 95%
Chenopodium; [5]
  pest or weed control at 500 g/ha: 100%
Viola; [6]
  pest or weed control at 500 g/ha: 100%
Polygonum; [7]
  pest or weed control at 500 g/ha: 100%
